{
  "source": "patent US10927115B2",
  "about": "“Substituted heterocycles for targeting Hsp90” (Duke University, priority 2012, dated 2021)",
  "key": {"[1]": {"system": "Hsp90", "test": "Recovery of compound 10 bound to purified Hsp90 by microanion exchange chromatography", "format": "binding, pig", "conditions": "excess compound 10, dialysis; Western blot and mass spectrometry; FIG. 13A", "experimental": "(§1) Hsp90 was purified from pig mammary gland as described in Hughes et al., Bioorg Med Chem. 2012, 20(10):3298-3305. The purified protein (0.3 g) was mixed with an excess of compound 10. The unbound probe was removed by dialysis and the labeled protein subjected to microanion exchange chromatography using a Pharmacia SMART system. Column fractions (100 μL) were collected and analyzed for fluorescence in a plate reader. […] The chromatography experiment was then repeated on cell extracts prepared from MCF7 and BT474 cells treated with compound 10."}, "[2]": {"system": "MCF10 (benign) cells", "test": "Probe detection of Hsp90 in cells ± membrane permeabilization with Triton X 100", "format": "cell-based", "conditions": "MCF10, non-permeabilized; FIG. 5B", "experimental": "(§2) In another experiment, MCF7 (metastatic) and MCF10 (benign) cells were treated with an Hsp90 antibody±membrane permeabilization with Triton X 100. […] After permeabilization the antibody recognizes intracellular Hsp90. […] The experiment was also performed using fluorescein compound 10. […] In FIGS. 5A-5B the green staining from compound 10 fluorescence appears white, while blue from the DAPI-stained nuclei appears gray."}, "[3]": {"system": "MCF7 (metastatic) cells", "test": "Probe detection of Hsp90 in cells ± membrane permeabilization with Triton X 100", "format": "cell-based", "conditions": "FIG. 5B", "experimental": "as §2"}, "[4]": {"system": "MDA-MB-468 tumor", "test": "Tumor labeling experiment, frozen sections under fluorescent microscope", "format": "in vivo, NOD/SCID mice", "conditions": "1 mg/mouse intraperitoneal; from 2 to 48 h; FIG. 12", "experimental": "MDA-MB-468 tumor cells (5 M cells/mouse) were injected to the flank of NOD/SCID mice. After 3 weeks, tumor volumes reached 400-450 mm^3. Mice were treated/untreated with intraperitoneal injection of compound 10 (1 mg/mouse). After 2, 24, 48 and 72 hours, mice were sacrificed, and tumor tissues were frozen in OCT compound. FITC(+) cells in tumor tissues (frozen sections) were analyzed under fluorescent microscope (Axio Observer). In FIG. 12, the green staining from compound 10 fluorescence appears white or light gray."}, "[5]": {"system": "Hsp90", "test": "Recovery of drug-bound protein from tumors of mice by micro anion-exchange chromatography", "format": "in vivo", "conditions": "1 mg IV, tumors excised after 2 hours, FIG. 17", "experimental": "Mice were injected (IV) with 1 mg of compound 10 and the tumors were excised from the animal after 2 hours. Tissue extracts were prepared and characterized by micro anion-exchange chromatography. Column fractions were analyzed for the presence of compound 10 by fluorescence and mass spectrometry."}, "[6]": {"system": "MCF cells", "test": "Heat treatment of cells, compound 10 uptake, micro anion-exchange chromatography of extracts", "format": "cell-based", "conditions": "10 μM, FIG. 13B", "experimental": "MCF cells were heated to 42° C. or maintained at 37° C. for 60 minutes. Compound 10 was added (10 μM) and after 60 minutes the cells harvested. Extracts were prepared and separated by micro anion-exchange chromatography. Column fractions were analyzed for the presence of compound 10."}, "[7]": {"system": "MCF7 cells", "test": "Anion exchange chromatography of extracts of cells treated with compound 10", "format": "cell-based", "conditions": "MCF7 cells treated with compound 10; peak at 49 minutes", "experimental": "as §1"}, "[8]": {"system": "BT474 cells", "test": "Anion exchange chromatography of extracts of cells treated with compound 10", "format": "cell-based", "conditions": "BT474 cells treated with compound 10; peak at 49 minutes", "experimental": "as §1"}},
  "data": [
    {"molecule": "Cc1nn(-c2ccc(C(N)=O)c(NCCCOCCOCCOCCOCCOCCCNC(=S)Nc3ccc4c(c3)C(=O)OC43c4ccc(O)cc4Oc4cc(O)ccc43)c2)c2c1C(=O)CC(C)(C)C2", "note": "[Compound 10, 2-((1-((3′,6′-dihydroxy-3-oxo-3H-spiro[isobenzofuran-1,9′-xanthen]-5-yl)amino)-1-thioxo-6,9,12,15,18-pentaoxa-2-azahenicosan-21-yl)amino)-4-(3,6,6-trimethyl-4-oxo-4,5,6,7-tetrahydro-1H-indazol-1-yl)benzamide]", "values": [
      {"measurement": "fluorescence elution profile of labeled purified Hsp90", "setting": "[1]", "value": "single peak was recovered by fluorescence that correlated with elution of Hsp90"},
      {"measurement": "probe entry and detection of Hsp90", "setting": "[2]", "value": "not in MCF10 cells"},
      {"measurement": "probe entry and detection of Hsp90", "setting": "[3]; MCF7, non-permeabilized", "value": "enters and detects Hsp90"},
      {"measurement": "detection of intracellular Hsp90 following permeabilization", "setting": "[3]; MCF7 compared with MCF10, Triton X 100", "value": "detects more intracellular Hsp90 in MCF7s"},
      {"measurement": "FITC signal of tumor cells in frozen sections", "setting": "[4]", "value": "intense FITC signal"},
      {"measurement": "two minor peaks of fluorescence of tumor extract", "setting": "[5]; fractions 27-35", "value": "attributable to binding to degraded forms of the N terminal domain of Hsp90"},
      {"measurement": "major peak of fluorescence of tumor extract", "setting": "[5]; fractions 49-53", "value": "correlates with elution of full length Hsp90"},
      {"measurement": "major peak of fluorescence of cell extract", "setting": "[6]; 60 minutes", "value": "correlates with elution of Hsp90"},
      {"measurement": "effect of heat treatment on uptake", "setting": "[6]; 42° C. vs 37° C. for 60 minutes", "value": "increased uptake"},
      {"measurement": "fluorescence peak of cell extract", "setting": "[7]", "value": "co-elutes with Hsp90"},
      {"measurement": "fluorescence peak of cell extract", "setting": "[8]", "value": "co-elutes with Hsp90"}
    ]}
  ]
}
